Reference: publication PMC9737391, “Trifluoromethylcinnamanilide Michael Acceptors for Treatment of Resistant Bacterial Infections” (International Journal of Molecular Sciences, 2022)
≈ marks a conversion by molar mass, not a printed value.

Experiments:
[1] = Lipophilicity determination by RP-HPLC; type: physicochemical; settings: for log k: RP-HPLC, logarithm of capacity factor k
Experimental: It is evident from the graphs in Figure 1 that the correlation coefficients of the dependences of log k/log D6.5/log D7.4 have a value of r = 0.999 (n = 32), which means that the investigated compounds behave insignificantly differently in aqueous media with different pH. Moreover, lipophilicity was calculated as log P and Clog P using two prediction programs. […] Therefore, only log P values predicted by ACD/Percepta can be used for correlations with experimental values. These matches are shown in the graphs in Figure 2, and according to the correlation coefficient r~0.940 (n = 32), it can be argued that even the predicted lipophilicity values correlate with the experimentally measured ones. However, the largest variations were observed (no difference for series 1, 2) for compounds substituted with 2-Cl, 2-CF3, 2,5-Cl, 4-F, 4-CF3, and 3,5-F, 3,5-Cl. These are mainly substituents capable of forming hydrogen and other types of non-bonding interactions both with the surrounding environment and within the molecule. Overall, series 1 (3-CF3) is less lipophilic than series 2 (4-CF3), but the differences in the experimental data are insignificant. Unsubstituted derivatives 1a/2a are the least lipophilic compounds, while derivatives 1o/2o (3,5-Cl) and 1p/2p (3,5-CF3) are the most lipophilic compounds.
Experimental determination of lipophilicity values (log k, log D6.5, and log D7.4) was performed under the same conditions and on the same device as described by Strharsky et al..

[2] = test system: methicillin-resistant S. aureus 63718 (MRSA3); assay: MIC, microtitration broth method; type: cell-based; settings: Staphylococcus aureus; MRSA 63718
[3] = test system: Staphylococcus aureus ATCC 29213; assay: MBC, agar aliquot subculture method; type: cell-based; settings: ATCC29213, S. aureus ATCC 29213
[4] = test system: methicillin-resistant S. aureus SA 3202 (MRSA1); assay: MBC, agar aliquot subculture method; type: cell-based; settings: Staphylococcus aureus; MRSA SA 3202
[5] = test system: methicillin-resistant S. aureus SA 630 (MRSA2); assay: MBC, agar aliquot subculture method; type: cell-based; settings: Staphylococcus aureus; MRSA SA 630
[6] = test system: human monocytic leukemia cell line THP-1; assay: In vitro cell viability (cytotoxicity screening); type: cell-based; settings: 24 h, medium with 10% FBS, ± SD, n = 6
Experimental: The investigated anilides can be divided into three groups. […] Higher concentrations (than 10 or 30 µM) were not possible to evaluate due to precipitation of the tested compounds in water medium. Based on all these observations, it can be concluded that the high antimicrobial activity of 3,5-CF3-substituted compounds is associated with significant cytotoxic effect against eukaryotic cells. On the other hand, the other still effective compounds, especially agents 1j and 1o, have an insignificant toxic effect, which makes them interesting for further study.
Human monocytic leukemia THP-1 cells obtained from the European Collection of Cell Cultures (ECACC, Salisbury, UK) were used for in vitro antiproliferative assays. A recently described procedure was used.

M. smegmatis ATCC 700084 = assay: In vitro antimycobacterial evaluation (MIC); type: cell-based, Mycobacterium smegmatis; settings: Mycolicibacterium smegmatis, ATCC700084
[7] = test system: methicillin-resistant S. aureus SA 630 (MRSA2); assay: MIC, microtitration broth method; type: cell-based; settings: Staphylococcus aureus; MRSA SA 630
[8] = test system: Staphylococcus aureus ATCC 29213; assay: MIC, microtitration broth method; type: cell-based; settings: ATCC29213, S. aureus ATCC 29213
S. aureus ATCC 29213 = assay: MTT assay, inhibition of bacterial respiration; type: cell-based, Staphylococcus aureus
Source text: The MTT assay can be used to assess cell growth by measuring respiration. Respiratory activity of bacterial cells (which is finally reflected in their viability) less than 70% after exposure to the MIC values for each tested compound is considered as a positive result of this assay. This low level of cell oxidative metabolism indicates inhibition of cell growth by inhibition of respiration. The lowest multiples of MIC values that achieved more than 70% inhibition of S. aureus ATCC 29213 viability (%) are shown in Table 3.
The percent inhibition of respiration of S. aureus ATCC 29213 was determined through the MTT assay. The assay was performed as described recently. The percent viability is calculated through the comparison of a measured value and that of the uninhibited control: % viability = OD570E/OD570P × 100, where OD570E is the reading from the compound-exposed cells, while OD570P is the reading from the uninhibited cells (positive control). Cytotoxic potential is determined by a percent viability of <70% [46, 47].

[9] = test system: methicillin-resistant S. aureus SA 3202 (MRSA1); assay: MIC, microtitration broth method; type: cell-based; settings: Staphylococcus aureus; MRSA SA 3202
[10] = test system: methicillin-resistant S. aureus 63718 (MRSA3); assay: MBC, agar aliquot subculture method; type: cell-based; settings: Staphylococcus aureus; MRSA 63718

Molecule | log k [1] | melting point [°C] | further results
O=C(/C=C/c1cccc(C(F)(F)F)c1)Nc1ccccc1 [1a, (2E)-N-Phenyl-3-[3-(trifluoromethyl)phenyl]prop-2-enamide] | 0.5234 |  | 
O=C(/C=C/c1cccc(C(F)(F)F)c1)Nc1ccccc1F [1b, (2E)-N-(2-Fluorophenyl)-3-[3-(trifluoromethyl)phenyl]prop-2-enamide] | 0.5375 | 115 to 117 | 
O=C(/C=C/c1cccc(C(F)(F)F)c1)Nc1cccc(F)c1 [1c, (2E)-N-(3-Fluorophenyl)-3-[3-(trifluoromethyl)phenyl]prop-2-enamide] | 0.6333 | 113 to 115 | MIC [2]: 12.9 µM (≈ 3.99 µg/mL); MBC [3]: 25.9 µM (≈ 8.01 µg/mL); MBC [4]: 25.9 µM (≈ 8.01 µg/mL); MBC [5]: 12.9 µM (≈ 3.99 µg/mL); IC50 [6]: > 30 µM; MIC (M. smegmatis ATCC 700084): 51.7 µM (≈ 16 µg/mL); MIC [7]: 12.9 µM (≈ 3.99 µg/mL); MIC [8]: 12.9 µM (≈ 3.99 µg/mL); Conc.: lowest multiple of MIC with at least 70% inhibition of respiratory activity (S. aureus ATCC 29213): 2 × MIC; Conc.: the same concentration as multiple of MBC (S. aureus ATCC 29213): 1 × MBC; MIC [9]: 25.9 µM (≈ 8.01 µg/mL); MBC [10]: 12.9 µM (≈ 3.99 µg/mL)
O=C(/C=C/c1cccc(C(F)(F)F)c1)Nc1ccc(F)cc1 [1d, (2E)-N-(4-Fluorophenyl)-3-[3-(trifluoromethyl)phenyl]prop-2-enamide] | 0.5760 |  | 
O=C(/C=C/c1cccc(C(F)(F)F)c1)Nc1ccccc1Cl [1e, (2E)-N-(2-Chlorophenyl)-3-[3-(trifluoromethyl)phenyl]prop-2-enamide] | 0.6568 | 118 to 120 | 
O=C(/C=C/c1cccc(C(F)(F)F)c1)Nc1ccccc1C(F)(F)F [1h, (2E)-N-[2-(Trifluoromethyl)phenyl]-3-[3-(trifluoromethyl)phenyl]prop-2-enamide] | 0.5710 | 111 to 113 | 
O=C(/C=C/c1cccc(C(F)(F)F)c1)Nc1cccc(C(F)(F)F)c1 [1i, (2E)-N,3-bis[3-(Trifluoromethyl)phenyl]prop-2-enamide] | 0.8807 |  | MIC [2]: 2.78 µM (≈ 0.999 µg/mL); MBC [3]: 22.3 µM (≈ 8.01 µg/mL); MBC [4]: 11.1 µM (≈ 3.99 µg/mL); MBC [5]: 2.78 µM (≈ 0.999 µg/mL); IC50 [6]: > 10 µM; MIC (M. smegmatis ATCC 700084): 11.1 µM (≈ 3.99 µg/mL); MIC [7]: 2.78 µM (≈ 0.999 µg/mL); MIC [8]: 11.1 µM (≈ 3.99 µg/mL); Conc.: lowest multiple of MIC with at least 70% inhibition of respiratory activity (S. aureus ATCC 29213): 1 × MIC; Conc.: the same concentration as multiple of MBC (S. aureus ATCC 29213): 0.5 × MBC; MIC [9]: 11.1 µM (≈ 3.99 µg/mL); MBC [10]: 22.3 µM (≈ 8.01 µg/mL)
O=C(/C=C/c1cccc(C(F)(F)F)c1)Nc1ccc(F)cc1F [1k, (2E)-N-(2,4-Difluorophenyl)-3-[3-(trifluoromethyl)phenyl]prop-2-enamide] | 0.5906 | 143 to 145 | 
O=C(/C=C/c1cccc(C(F)(F)F)c1)Nc1cc(F)cc(F)c1 [1l, (2E)-N-(3,5-Difluorophenyl)-3-[3-(trifluoromethyl)phenyl]prop-2-enamide] | 0.8186 | 131 to 133 | 
O=C(/C=C/c1cccc(C(F)(F)F)c1)Nc1ccc(Cl)cc1Cl [1m, (2E)-N-(2,4-Dichlorophenyl)-3-[3-(trifluoromethyl)phenyl]prop-2-enamide] | 0.9782 | 134 to 136 | 
O=C(/C=C/c1cccc(C(F)(F)F)c1)Nc1cc(Cl)ccc1Cl [1n, (2E)-N-(2,5-Dichlorophenyl)-3-[3-(trifluoromethyl)phenyl]prop-2-enamide] | 0.9612 | 145 to 147 | 
O=C(/C=C/c1ccc(C(F)(F)F)cc1)Nc1ccccc1F [2b, (2E)-N-(2-Fluorophenyl)-3-[4-(trifluoromethyl)phenyl]prop-2-enamide] | 0.5515 | 164 to 166 | 
O=C(/C=C/c1ccc(C(F)(F)F)cc1)Nc1cccc(F)c1 [2c, (2E)-N-(3-Fluorophenyl)-3-[4-(trifluoromethyl)phenyl]prop-2-enamide] | 0.6462 | 146 to 148 | 
O=C(/C=C/c1ccc(C(F)(F)F)cc1)Nc1ccc(F)cc1 [2d, (2E)-N-(4-Fluorophenyl)-3-[4-(trifluoromethyl)phenyl]prop-2-enamide] | 0.5887 | 149 to 151 | 
O=C(/C=C/c1ccc(C(F)(F)F)cc1)Nc1ccccc1Cl [2e, (2E)-N-(2-Chlorophenyl)-3-[4-(trifluoromethyl)phenyl]prop-2-enamide] | 0.6614 | 171 to 173 | 
O=C(/C=C/c1ccc(C(F)(F)F)cc1)Nc1cccc(Cl)c1 [2f, (2E)-N-(3-Chlorophenyl)-3-[4-(trifluoromethyl)phenyl]prop-2-enamide] | 0.8095 | 150 to 152 | 
O=C(/C=C/c1ccc(C(F)(F)F)cc1)Nc1ccc(Cl)cc1 [2g, (2E)-N-(4-Chlorophenyl)-3-[4-(trifluoromethyl)phenyl]prop-2-enamide] | 0.8054 | 185 to 187 | 
O=C(/C=C/c1ccc(C(F)(F)F)cc1)Nc1ccccc1C(F)(F)F [2h, (2E)-N-[2-(Trifluoromethyl)phenyl]-3-[4-(trifluoromethyl)phenyl]prop-2-enamide] | 0.5798 | 189 to 191 | 
O=C(/C=C/c1ccc(C(F)(F)F)cc1)Nc1ccc(C(F)(F)F)cc1 [2j, (2E)-N,3-bis[4-(Trifluoromethyl)phenyl]prop-2-enamide] | 0.9319 | 192 to 194 | 
O=C(/C=C/c1ccc(C(F)(F)F)cc1)Nc1ccc(F)cc1F [2k, (2E)-N-(2,4-Difluorophenyl)-3-[4-(trifluoromethyl)phenyl]prop-2-enamide] | 0.6011 | 141 to 143 | 
O=C(/C=C/c1ccc(C(F)(F)F)cc1)Nc1cc(F)cc(F)c1 [2l, (2E)-N-(3,5-Difluorophenyl)-3-[4-(trifluoromethyl)phenyl]prop-2-enamide] | 0.8253 | 188 to 190 | 
O=C(/C=C/c1ccc(C(F)(F)F)cc1)Nc1ccc(Cl)cc1Cl [2m, (2E)-N-(2,4-Dichlorophenyl)-3-[4-(trifluoromethyl)phenyl]prop-2-enamide] | 0.9735 | 188 to 190 | 
O=C(/C=C/c1ccc(C(F)(F)F)cc1)Nc1cc(Cl)ccc1Cl [2n, (2E)-N-(2,5-Dichlorophenyl)-3-[4-(trifluoromethyl)phenyl]prop-2-enamide] | 0.9583 | 180 to 182 | 
O=C(/C=C/c1ccc(C(F)(F)F)cc1)Nc1cc(Cl)cc(Cl)c1 [2o, (2E)-N-(3,5-Dichlorophenyl)-3-[4-(trifluoromethyl)phenyl]prop-2-enamide] | 1.2024 | 177 to 179 | 
(2E)-N-Phenyl-3-[3-(trifluoromethyl)phenyl]prop-2-enamide [2a] | 0.5351 |  | log D6.5 ([1]; pH 6.5): 0.4751; log D7.4 ([1]; pH 7.4): 0.4684
